{"source": "PubChem BioAssay AID1963428", "about": "(Molecular Pharmacology Branch, DTP, NCI, 2024);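 on viability, T/C: spheroids exposed to compounds for 7 days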", "test_system": "171881-019-R-J1-PDC complex spheroid growth, % test/control", "test": "Anticancer human tumor 171881-019-R-J1-PDC patient-derived invasive breast carcinoma cell line growth inhibition [Asc]", "conditions": "for IC50: curve of first compound; for viability, T/C: stronger effect = lower value", "method_in_brief": "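Spheroid model: tumor line + HUVEC + hMSC. Single agents and combinations; top conc. at/near clinical Cmax (10 microM if undetermined), half-log dilutions. DMSO stocks at 800-fold test concentration.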", "key": {"[1]": {"conditions": "second compound 0.01 µM, first compound 0.0316 µM"}, "[2]": {"conditions": "second compound 0.01 µM, first compound 0.1 µM"}, "[3]": {"conditions": "second compound 0.01 µM, first compound 0.316 µM"}, "[4]": {"conditions": "second compound 0.01 µM, first compound 1 µM"}, "[5]": {"conditions": "second compound 0.0316 µM, first compound 0.0316 µM"}, "[6]": {"conditions": "second compound 0.0316 µM, first compound 0.1 µM"}, "[7]": {"conditions": "second compound 0.0316 µM, first compound 0.316 µM"}, "[8]": {"conditions": "second compound 0.0316 µM, first compound 1 µM"}, "[9]": {"conditions": "second compound 0.1 µM, first compound 0.0316 µM"}, "[10]": {"conditions": "second compound 0.1 µM, first compound 0.1 µM"}, "[11]": {"conditions": "second compound 0.1 µM, first compound 0.316 µM"}, "[12]": {"conditions": "second compound 0.1 µM, first compound 1 µM"}, "[13]": {"conditions": "second compound 0.316 µM, first compound 0.0316 µM"}, "[14]": {"conditions": "second compound 0.316 µM, first compound 0.1 µM"}, "[15]": {"conditions": "second compound 0.316 µM, first compound 0.316 µM"}, "[16]": {"conditions": "second compound 0.316 µM, first compound 1 µM"}, "[17]": {"conditions": "second compound 1 µM, first compound 0.0316 µM"}, "[18]": {"conditions": "second compound 1 µM, first compound 0.1 µM"}, "[19]": {"conditions": "second compound 1 µM, first compound 0.316 µM"}, "[20]": {"conditions": "second compound 1 µM, first compound 1 µM"}}}
{"smiles": "O=C(c1cc(Cc2n[nH]c(=O)c3ccccc23)ccc1F)N1CCN(C(=O)C2CC2)CC1", "note": "+ CNC(C)C(=O)NC1CN(S(=O)(=O)c2cccc(S(=O)(=O)N3CCC4CCC(C(=O)NC(c5ccccc5)c5ccccc5)N4C(=O)C(NC(=O)C(C)NC)C3)c2)CCC2CCC(C(=O)NC(c3ccccc3)c3ccccc3)N2C1=O", "values": [{"measurement": "IC50", "setting": "second compound 0.01 µM", "value": "> 10000", "unit": "nM"}, {"measurement": "IC50", "setting": "second compound 0.0316 µM", "value": "> 10000", "unit": "nM"}, {"measurement": "IC50", "setting": "second compound 0.1 µM", "value": "> 10000", "unit": "nM"}, {"measurement": "IC50", "setting": "second compound 0.316 µM", "value": "> 10000", "unit": "nM"}, {"measurement": "IC50", "setting": "second compound 1 µM", "value": "> 10000", "unit": "nM"}, {"measurement": "viability, T/C", "setting": "[1]", "value": 101, "unit": "%"}, {"measurement": "viability, T/C", "setting": "[2]", "value": 107, "unit": "%"}, {"measurement": "viability, T/C", "setting": "[3]", "value": 109, "unit": "%"}, {"measurement": "viability, T/C", "setting": "[4]", "value": 118, "unit": "%"}, {"measurement": "viability, T/C", "setting": "second compound 0.01 µM, first compound 3.16 µM", "value": 104, "unit": "%"}, {"measurement": "viability, T/C", "setting": "second compound 0.01 µM, first compound 10 µM", "value": 128, "unit": "%"}, {"measurement": "viability, T/C", "setting": "[5]", "value": 100, "unit": "%"}, {"measurement": "viability, T/C", "setting": "[6]", "value": 105, "unit": "%"}, {"measurement": "viability, T/C", "setting": "[7]", "value": 93.3, "unit": "%"}, {"measurement": "viability, T/C", "setting": "[8]", "value": 128, "unit": "%"}, {"measurement": "viability, T/C", "setting": "second compound 0.0316 µM, first compound 3.16 µM", "value": 107, "unit": "%"}, {"measurement": "viability, T/C", "setting": "second compound 0.0316 µM, first compound 10 µM", "value": 106, "unit": "%"}, {"measurement": "viability, T/C", "setting": "[9]", "value": 108, "unit": "%"}, {"measurement": "viability, T/C", "setting": "[10]", "value": 89.4, "unit": "%"}, {"measurement": "viability, T/C", "setting": "[11]", "value": 106, "unit": "%"}, {"measurement": "viability, T/C", "setting": "[12]", "value": 104, "unit": "%"}, {"measurement": "viability, T/C", "setting": "second compound 0.1 µM, first compound 3.16 µM", "value": 105, "unit": "%"}, {"measurement": "viability, T/C", "setting": "second compound 0.1 µM, first compound 10 µM", "value": 112, "unit": "%"}, {"measurement": "viability, T/C", "setting": "[13]", "value": 95, "unit": "%"}, {"measurement": "viability, T/C", "setting": "[14]", "value": 96.2, "unit": "%"}, {"measurement": "viability, T/C", "setting": "[15]", "value": 99.7, "unit": "%"}, {"measurement": "viability, T/C", "setting": "[16]", "value": 119, "unit": "%"}, {"measurement": "viability, T/C", "setting": "second compound 0.316 µM, first compound 3.16 µM", "value": 114, "unit": "%"}, {"measurement": "viability, T/C", "setting": "second compound 0.316 µM, first compound 10 µM", "value": 122, "unit": "%"}, {"measurement": "viability, T/C", "setting": "[17]", "value": 116, "unit": "%"}, {"measurement": "viability, T/C", "setting": "[18]", "value": 113, "unit": "%"}, {"measurement": "viability, T/C", "setting": "[19]", "value": 89.4, "unit": "%"}, {"measurement": "viability, T/C", "setting": "[20]", "value": 111, "unit": "%"}, {"measurement": "viability, T/C", "setting": "second compound 1 µM, first compound 3.16 µM", "value": 103, "unit": "%"}, {"measurement": "viability, T/C", "setting": "second compound 1 µM, first compound 10 µM", "value": 128, "unit": "%"}]}
{"smiles": "O=C(c1ccc(F)c(F)c1Nc1ccc(I)cc1F)N1CC(O)([C@@H]2CCCCN2)C1", "note": "+ CNC(C)C(=O)NC1CN(S(=O)(=O)c2cccc(S(=O)(=O)N3CCC4CCC(C(=O)NC(c5ccccc5)c5ccccc5)N4C(=O)C(NC(=O)C(C)NC)C3)c2)CCC2CCC(C(=O)NC(c3ccccc3)c3ccccc3)N2C1=O", "values": [{"measurement": "IC50", "setting": "second compound 0.01 µM", "value": "> 1000", "unit": "nM"}, {"measurement": "IC50", "setting": "second compound 0.0316 µM", "value": 747, "unit": "nM"}, {"measurement": "IC50", "setting": "second compound 0.1 µM", "value": 635, "unit": "nM"}, {"measurement": "IC50", "setting": "second compound 0.316 µM", "value": 519, "unit": "nM"}, {"measurement": "IC50", "setting": "second compound 1 µM", "value": 408, "unit": "nM"}, {"measurement": "viability, T/C", "setting": "second compound 0.01 µM, first compound 0.00316 µM", "value": 98.1, "unit": "%"}, {"measurement": "viability, T/C", "setting": "second compound 0.01 µM, first compound 0.01 µM", "value": 103, "unit": "%"}, {"measurement": "viability, T/C", "setting": "[1]", "value": 125, "unit": "%"}, {"measurement": "viability, T/C", "setting": "[2]", "value": 202, "unit": "%"}, {"measurement": "viability, T/C", "setting": "[3]", "value": 96.9, "unit": "%"}, {"measurement": "viability, T/C", "setting": "[4]", "value": 44.9, "unit": "%"}, {"measurement": "viability, T/C", "setting": "second compound 0.0316 µM, first compound 0.00316 µM", "value": 93.8, "unit": "%"}, {"measurement": "viability, T/C", "setting": "second compound 0.0316 µM, first compound 0.01 µM", "value": 98.2, "unit": "%"}, {"measurement": "viability, T/C", "setting": "[5]", "value": 133, "unit": "%"}, {"measurement": "viability, T/C", "setting": "[6]", "value": 203, "unit": "%"}, {"measurement": "viability, T/C", "setting": "[7]", "value": 86.4, "unit": "%"}, {"measurement": "viability, T/C", "setting": "[8]", "value": 37.6, "unit": "%"}, {"measurement": "viability, T/C", "setting": "second compound 0.1 µM, first compound 0.00316 µM", "value": 84.7, "unit": "%"}, {"measurement": "viability, T/C", "setting": "second compound 0.1 µM, first compound 0.01 µM", "value": 91.3, "unit": "%"}, {"measurement": "viability, T/C", "setting": "[9]", "value": 148, "unit": "%"}, {"measurement": "viability, T/C", "setting": "[10]", "value": 191, "unit": "%"}, {"measurement": "viability, T/C", "setting": "[11]", "value": 80, "unit": "%"}, {"measurement": "viability, T/C", "setting": "[12]", "value": 30.5, "unit": "%"}, {"measurement": "viability, T/C", "setting": "second compound 0.316 µM, first compound 0.00316 µM", "value": 115, "unit": "%"}, {"measurement": "viability, T/C", "setting": "second compound 0.316 µM, first compound 0.01 µM", "value": 111, "unit": "%"}, {"measurement": "viability, T/C", "setting": "[13]", "value": 145, "unit": "%"}, {"measurement": "viability, T/C", "setting": "[14]", "value": 179, "unit": "%"}, {"measurement": "viability, T/C", "setting": "[15]", "value": 68.2, "unit": "%"}, {"measurement": "viability, T/C", "setting": "[16]", "value": 25.7, "unit": "%"}, {"measurement": "viability, T/C", "setting": "second compound 1 µM, first compound 0.00316 µM", "value": 92.5, "unit": "%"}, {"measurement": "viability, T/C", "setting": "second compound 1 µM, first compound 0.01 µM", "value": 110, "unit": "%"}, {"measurement": "viability, T/C", "setting": "[17]", "value": 121, "unit": "%"}, {"measurement": "viability, T/C", "setting": "[18]", "value": 158, "unit": "%"}, {"measurement": "viability, T/C", "setting": "[19]", "value": 58.1, "unit": "%"}, {"measurement": "viability, T/C", "setting": "[20]", "value": 21.4, "unit": "%"}]}
